From US9403796B2, “Amidomethyl-substituted oxindole derivatives and the use thereof for the treatment of vasopressin-dependent illnesses” (AbbVie Deutschland GmbH & Co. KG, priority 2007, dated 2016)

How the values were obtained:
[1] = Determination of the microsomal half-life / microsomal clearance; assay type: in vitro ADME; conditions: pH 7.4; human liver microsomes, 0.5 μM test substance
Experimental: The metabolic stability of the compounds of the invention was determined in the following assay.
The test substances were incubated in a concentration of 0.5 μM as follows:
0.5 μM test substance are preincubated together with liver microsomes from different species (from rat, human or other species) (0.25 mg of microsomal protein/ml) in 0.05 M potassium phosphate buffer of pH 7.4 in microtiter plates at 37° C. for 5 min. The reaction is started by adding NADPH (1 mg/mL). After 0, 5, 10, 15, 20 and 30 min, 50 μl aliquots are removed, and the reaction is immediately stopped and cooled with the same volume of acetonitrile. The samples are frozen until analyzed. The remaining concentration of undegraded test substance is determined by MSMS. The half-life (T½) is determined from the gradient of the signal of test substance/unit time plot, it being possible to calculate the half-life of the test substance, assuming first order kinetics, from the decrease in the concentration of the compound with time. The microsomal clearance (mCl) is calculated from mCl=In2/T½/(content of microsomal protein in mg/ml)×1000 [ml/min/mg] (modified from references: Di, The Society for Biomolecular Screening, 2003, 453-462; Obach, DMD, 1999 vol. 27. N 11, 1350-1359).

[2] = molecular target: human vasopressin V1a receptor (Homo sapiens, UniProt P37288); assay: Vasopressin V1a receptor binding assay; conditions: selectivity quotient, human V1a vs human V1b
Sequence of human vasopressin V1a receptor (P37288 whole entry): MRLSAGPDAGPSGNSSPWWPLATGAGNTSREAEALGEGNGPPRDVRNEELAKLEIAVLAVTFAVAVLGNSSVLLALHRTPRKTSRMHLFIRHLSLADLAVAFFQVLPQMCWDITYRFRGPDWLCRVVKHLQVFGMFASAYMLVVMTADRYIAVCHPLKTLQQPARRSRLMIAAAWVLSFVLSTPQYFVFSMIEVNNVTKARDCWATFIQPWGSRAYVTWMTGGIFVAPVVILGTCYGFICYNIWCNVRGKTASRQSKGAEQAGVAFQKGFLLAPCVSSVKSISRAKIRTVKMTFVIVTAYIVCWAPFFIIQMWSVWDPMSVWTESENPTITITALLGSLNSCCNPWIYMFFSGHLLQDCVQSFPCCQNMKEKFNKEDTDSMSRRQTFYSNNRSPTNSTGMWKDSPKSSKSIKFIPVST

[3] = molecular target: T1, human vasopressin V1b receptor (Homo sapiens, UniProt P47901); assay: Vasopressin V1b receptor binding assay; conditions: CHO-K1 membranes, 3H-AVP displacement
T1 construct: expressed in transfected cells; host or cells: CHO-K1 (cell line hV1b_3H2_CHO), membrane preparation
T1 sequence (P47901 1-424): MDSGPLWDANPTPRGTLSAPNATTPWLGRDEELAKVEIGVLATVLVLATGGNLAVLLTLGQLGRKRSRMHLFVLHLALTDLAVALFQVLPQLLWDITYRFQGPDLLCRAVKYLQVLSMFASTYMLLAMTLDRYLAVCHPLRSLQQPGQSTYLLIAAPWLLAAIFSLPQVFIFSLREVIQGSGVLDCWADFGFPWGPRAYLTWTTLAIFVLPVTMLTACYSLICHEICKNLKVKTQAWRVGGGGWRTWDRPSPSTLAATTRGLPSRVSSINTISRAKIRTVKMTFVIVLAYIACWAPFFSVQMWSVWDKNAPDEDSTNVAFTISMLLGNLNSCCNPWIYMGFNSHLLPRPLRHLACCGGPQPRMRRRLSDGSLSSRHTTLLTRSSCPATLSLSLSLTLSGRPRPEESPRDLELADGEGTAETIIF
Experimental: The substance concentration was further diluted 1:5 in the assay mixture (2% DMSO in the mixture).
The nonspecific binding was determined with […] (Bachem #H1780). All determinations were carried out as triplicate determinations.

SMILES | microsomal CLint at 0.5 μM [1] | Ki(h-V1a)/Ki(h-V1b) [2] | Ki [3]
CCOc1ncccc1C1(CC(=O)N2CCC(N3CCN(C)CC3)CC2)C(=O)N(S(=O)(=O)c2ccccc2)c2ccc(C#N)cc21.O=C(O)C(F)(F)F (racemic) [Example 1, (±)-1-Phenylsulfonyl-3-(2-ethoxypyridin-3-yl)-3-{2-[4-(4-methylpiperazin-1-yl)piperidin-1-yl]-2-oxoethyl}-2-oxo-2,3-dihydro-1H-indole-5-carbonitrile, trifluoroacetic acid salt] | < 100 µL/min/mg | ++ (15-30) | 3 to 30 nM
CCOc1ncccc1C1(CC(=O)N2CCC(N3CCN(CC)CC3)CC2)C(=O)N(S(=O)(=O)c2ccccc2)c2ccc(C#N)cc21.O=C(O)C(F)(F)F (racemic) [Example 3, (±)-1-Phenylsulfonyl-3-(2-ethoxypyridin-3-yl)-3-{2-[4-(4-ethylpiperazin-1-yl)piperidin-1-yl]-2-oxoethyl}-2-oxo-2,3-dihydro-1H-indole-5-carbonitrile, trifluoroacetic acid salt] | < 100 µL/min/mg | +++ (>30) | 3 to 30 nM
CCOc1ncccc1C1(CC(=O)N2CCC(N3CCN(CC)CC3)CC2)C(=O)N(S(=O)(=O)c2ccccc2OC)c2ccc(C#N)cc21.O=C(O)C(F)(F)F (racemic) [Example 4, (±)-3-(2-Ethoxypyridin-3-yl)-3-{2-[4-(4-ethylpiperazin-1-yl)piperidin-1-yl]-2-oxoethyl}-1-(2-methoxyphenylsulfonyl)-2-oxo-2,3-dihydro-1H-indole-5-carbonitrile, trifluoroacetic acid salt] | 100 to 200 µL/min/mg | +++ (>30) | 3 to 30 nM
CCOc1ncccc1C1(CC(=O)N2CCC(N3CCN(C)CC3)CC2)C(=O)N(S(=O)(=O)c2ccccc2OC)c2ccc(C#N)cc21.O=C(O)C(F)(F)F (racemic) [Example 5, (±)-3-(2-Ethoxypyridin-3-yl)-1-(2-methoxyphenylsulfonyl)-3-{2-[4-(4-methylpiperazin-1-yl)-piperidin-1-yl]-2-oxoethyl}-2-oxo-2,3-dihydro-1H-indole-5-carbonitrile, trifluoroacetic acid] | 100 to 200 µL/min/mg | ++ (15-30) | 3 to 30 nM
CCOc1ncccc1C1(CC(=O)N2CCN(C3CCN(C)CC3)CC2)C(=O)N(S(=O)(=O)c2ccccc2)c2ccc(C#N)cc21.O=C(O)C(F)(F)F (racemic) [Example 7, (±)-1-Phenylsulfonyl-3-(2-ethoxypyridin-3-yl)-3-{2-[4-(1-methylpiperidin-4-yl)piperazin-1-yl]-2-oxoethyl}-2-oxo-2,3-dihydro-1H-indole-5-carbonitrile, trifluoroacetic acid salt] | < 100 µL/min/mg | +++ (>30) | 3 to 30 nM
CCOc1ncccc1C1(CC(=O)N2CCN(C3CCN(C)CC3)CC2)C(=O)N(S(=O)(=O)c2ccccc2OC)c2ccc(C#N)cc21.O=C(O)C(F)(F)F (racemic) [Example 8, (±)-3-(2-Ethoxypyridin-3-yl)-1-(2-methoxyphenylsulfonyl)-3-{2-[4-(1-methylpiperidin-4-yl)-piperazin-1-yl]-2-oxoethyl}-2-oxo-2,3-dihydro-1H-indole-5-carbonitrile, trifluoroacetic acid salt] | < 100 µL/min/mg | +++ (>30) | 3 to 30 nM

Further lines, results first:

microsomal CLint at 0.5 μM [1] | Ki(h-V1a)/Ki(h-V1b) [2] | Ki [3] | SMILES
< 100 µL/min/mg | +++ (>30) | < 3 nM | CCOc1ncccc1C1(CC(=O)N2CCC(N3CCN(CC)CC3)CC2)C(=O)N(S(=O)(=O)c2ccc(OC)cc2OC)c2ccc(C#N)cc21.O=C(O)C(F)(F)F (racemic) [Example 2, (±)-1-(2,4-Dimethoxyphenylsulfonyl)-3-(2-ethoxypyridin-3-yl)-3-{2-[4-(4-ethylpiperazin-1-yl)piperidin-1-yl]-2-oxoethyl}-2-oxo-2,3-dihydro-1H-indole-5-carbonitrile trifluoroacetic acid salt]
< 100 µL/min/mg | +++ (>30) | < 3 nM | CCOc1ncccc1C1(CC(=O)N2CCC(N3CCN(C)CC3)CC2)C(=O)N(S(=O)(=O)c2ccc(OC)cc2OC)c2ccc(C#N)cc21.O=C(O)C(F)(F)F (racemic) [Example 6, (±)-1-(2,4-Dimethoxyphenylsulfonyl)-3-(2-ethoxypyridin-3-yl)-3-{2-[4-(4-methylpiperazin-1-yl)piperidin-1-yl]-2-oxoethyl}-2-oxo-2,3-dihydro-1H-indole-5-carbonitrile, trifluoroacetic acid salt]
< 100 µL/min/mg | +++ (>30) | < 3 nM | CCOc1ncccc1C1(CC(=O)N2CCN(C3CCN(C)CC3)CC2)C(=O)N(S(=O)(=O)c2ccc(OC)cc2OC)c2ccc(C#N)cc21.O=C(O)C(F)(F)F (racemic) [Example 9, (±)-1-(2,4-Dimethoxyphenylsulfonyl)-3-(2-ethoxypyridin-3-yl)-3-{2-[4-(1-methylpiperidin-4-yl)piperazin-1-yl]-2-oxoethyl}-2-oxo-2,3-dihydro-1H-indole-5-carbonitrile, trifluoroacetic acid salt]
< 100 µL/min/mg | +++ (>30) | < 3 nM | CCOc1ncccc1C1(CC(=O)N2CCN(C3CCN(CC)CC3)CC2)C(=O)N(S(=O)(=O)c2ccc(OC)cc2OC)c2ccc(C#N)cc21 (single isomer, unassigned; (-)) [Example 10B, (−)1-(2,4-Dimethoxyphenylsulfonyl)-3-(2-ethoxypyridin-3-yl)-3-{2-[4-(1-ethylpiperidin-4-yl)-piperazin-1-yl]-2-oxoethyl}-2-oxo-2,3-dihydro-1H-indole-5-carbonitrile]
